# Columns and labels:
# Assay in all cases: Yeast two-hybrid assay (HIS3 / β-galactosidase reporter)
# AR HBD = molecular target: T1, AR HBD (Homo sapiens, UniProt P10275); assay type: cell-based; conditions: 100 nM of dihydrotestosterone
# T1 construct: fusion proteins of Gal4-DBD and HBDs of AR, GR, PR, TR, RAR, and RXR in pGBT9 vector; expressed in transfected cells; host or cells: yeast Y187 x CG1945 diploids; plasmid a gift of M. R. Stallcup
# Procedure: (§1) The protein-protein interactions between the full-length PNRC or PNRC fragments and SF1, ERRα1, and several other nuclear receptors were analyzed by yeast two-hybrid assays. The yeast two-hybrid assay was used to test if PNRC also interacts with other members of the nuclear receptor superfamily. pGBT9-ERRα-1 yeast expression plasmid was prepared by inserting the PCR-amplified ERRA-1 coding region into pGBT9 through an EcoRI site. To construct the plasmid pGBT9-ER274-595, the coding sequence from amino acids 274 to 595 (LBD) of ERα was amplified by PCR with the sense primer 5′-[…]-3′ (SEQ ID NO:1) and antisense primer 5′-[…]-3′ (SEQ ID NO:2) and cloned into the EcoRI/,SalI site of the pGBT9 yeast expression plasmid. pSG5-GRIP1 and several yeast expression plasmids coding for fusion proteins of Gal4-DBD and HBDs of AR, GR, PR, TR, RAR, and RXR in pGBT9 vector were kindly provided by Dr. Michael R. Stallcup (University of Southern California, Los Angeles, Calif.) (Voegel et al., 1996; Hong et al., 1996; Ding et al., 1998). The yeast mating approach was used in yeast two-hybrid assays to study protein-protein interactions as described in Clontech's protocol. Briefly, pGBT9 (DNA-BD vector only), pGBT9/target plasnmids for SF1, ERRα1, and other HBDs of nuclear receptors, and DNA-BD/control plasmids (as negative control) were introduced into the reporter strain Y187, and the AD vector alone or wild type PNRC and its deleted fragments-containing pACT2 derivatives were used to transform yeast strain CG1945. The yeast mating was performed by picking one colony from each type and growing both colonies in liquid YPD medium with or without a proper ligand at the following concentrations: 100 nM of estradiol for ER; 10 μM of deoxycorticosterone for GR; 100 nM of dihydrotestosterone for AR; 500 nM of progesterone for PR; 10 μM of T3 for TR; 10 μM of all-trans-retinoic acid for RAR; and 10 μM of 9-cis-retinoic acid for RXR. The same amount of an aliquot of the mating culture was spread on both SD/-Leu/-Trp plates to select diploid strains bearing both plasmids and SD/-Leu/-Trp/-His/+3-AT plates to score the growth of the diploid cells that express the two interacting target proteins. The His3 positive colonies were further analyzed for β-galactosidase activity by liquid β-galactosidase activity measurement as essentially described in the protocol.
# (§2) Yeast strains Y187 expressing the Gal4DB fusion to the nuclear receptors and CG1945expressing Gal4AD alone or Gal4AD-PNRC fusion protein were mated by co-culturing, and selected for the presence of both two-hybrid plasmids. The expression of interacting hybrid proteins in yeast diploids was analyzed to determine if there was induction of HIS3 expression as shown in FIG. 1A and LacZ expression as shown in FIGS. 1B and 1C. […] As shown in FIGS. 1A-C, PNRC also interacted specifically with all seven nuclear receptor HBDs, including ER, AR, GR, TR, PR, RAR and RXR, and these interactions were completely ligand-dependent. […] However, no interactions occurred either between PNRC and an irrelevant protein such as human lamin C protein or between nuclear receptors and Gal4activation domain alone.
# ER (ERα LBD, aa 274-595) = molecular target: T2, ER (ERα LBD, aa 274-595) (Homo sapiens, UniProt P03372); assay type: cell-based; conditions: 100 nM of estradiol
# T2 construct: expressed in transfected cells; host or cells: yeast Y187 x CG1945 diploids
# T2 sequence (P03372 274-595): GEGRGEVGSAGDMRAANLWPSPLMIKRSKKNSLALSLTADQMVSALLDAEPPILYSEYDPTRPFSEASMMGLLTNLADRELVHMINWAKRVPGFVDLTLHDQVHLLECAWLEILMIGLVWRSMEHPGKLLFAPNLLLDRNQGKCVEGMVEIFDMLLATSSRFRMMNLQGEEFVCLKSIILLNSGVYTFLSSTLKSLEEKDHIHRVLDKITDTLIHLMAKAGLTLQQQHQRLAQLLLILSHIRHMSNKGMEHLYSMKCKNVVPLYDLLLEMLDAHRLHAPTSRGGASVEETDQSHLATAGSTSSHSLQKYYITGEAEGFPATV
# T2 sequence (Q12796 whole entry partner, the tested form may be a part): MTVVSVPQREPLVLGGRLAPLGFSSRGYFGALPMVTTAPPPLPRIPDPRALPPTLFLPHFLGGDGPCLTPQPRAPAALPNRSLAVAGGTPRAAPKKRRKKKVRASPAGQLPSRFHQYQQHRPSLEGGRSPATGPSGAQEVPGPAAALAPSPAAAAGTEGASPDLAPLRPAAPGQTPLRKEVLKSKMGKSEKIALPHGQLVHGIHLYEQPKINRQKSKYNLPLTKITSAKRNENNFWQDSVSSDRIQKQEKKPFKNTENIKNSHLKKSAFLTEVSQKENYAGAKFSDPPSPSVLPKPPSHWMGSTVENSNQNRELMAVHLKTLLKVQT
# Procedure: as §1, §2
# ERRα1 = molecular target: T3, ERRα1 (Homo sapiens, UniProt P11474); assay type: cell-based; conditions: no ligand
# T3 construct: inserting the PCR-amplified ERRA-1 coding region into pGBT9 through an EcoRI site; expressed in transfected cells; host or cells: yeast Y187 x CG1945 diploids
# T3 sequence (P11474 1-423): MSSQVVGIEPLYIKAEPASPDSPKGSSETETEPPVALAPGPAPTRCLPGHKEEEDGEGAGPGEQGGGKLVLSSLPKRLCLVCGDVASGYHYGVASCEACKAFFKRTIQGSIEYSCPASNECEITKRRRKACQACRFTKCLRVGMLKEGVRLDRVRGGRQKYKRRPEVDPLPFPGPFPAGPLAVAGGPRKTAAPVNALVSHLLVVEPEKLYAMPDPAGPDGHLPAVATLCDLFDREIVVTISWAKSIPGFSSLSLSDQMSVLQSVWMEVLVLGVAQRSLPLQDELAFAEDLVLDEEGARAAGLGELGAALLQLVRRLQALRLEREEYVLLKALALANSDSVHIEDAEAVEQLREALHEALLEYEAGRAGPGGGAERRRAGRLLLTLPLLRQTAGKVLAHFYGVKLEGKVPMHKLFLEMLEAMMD
# Procedure: as §1, §2
# GR HBD = assay type: cell-based; conditions: 10 μM of deoxycorticosterone
# Procedure: as §1, §2
# PR HBD = assay type: cell-based; conditions: 500 nM of progesterone
# Sequence of PR HBD (P06401 679-933 limits assumed): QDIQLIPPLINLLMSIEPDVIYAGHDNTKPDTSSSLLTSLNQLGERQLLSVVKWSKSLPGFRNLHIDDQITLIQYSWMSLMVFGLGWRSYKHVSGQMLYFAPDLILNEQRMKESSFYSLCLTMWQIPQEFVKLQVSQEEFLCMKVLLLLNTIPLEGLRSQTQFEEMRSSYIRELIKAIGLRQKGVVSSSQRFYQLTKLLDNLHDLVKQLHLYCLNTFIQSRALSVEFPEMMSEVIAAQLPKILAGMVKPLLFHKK
# Procedure: as §1, §2
# RAR HBD = assay type: cell-based; conditions: 10 μM of all-trans-retinoic acid
# Procedure: as §1, §2
# RXR HBD = assay type: cell-based; conditions: 10 μM of 9-cis-retinoic acid
# Procedure: as §1, §2
# TR HBD = assay type: cell-based; conditions: 10 μM of T3
# Procedure: as §1, §2
# SF1 = SF1 (Bos taurus, UniProt Q04752); assay type: cell-based, bovine; set-up: The coding region for the wild type bovine SF1 was first subcloned into a yeast expression vector, pGBT9; expressed in transfected cells; host or cells: yeast (Y187, or Y187 x CG1945 diploids); conditions: no ligand
# Sequence of SF1 (Q04752 whole entry): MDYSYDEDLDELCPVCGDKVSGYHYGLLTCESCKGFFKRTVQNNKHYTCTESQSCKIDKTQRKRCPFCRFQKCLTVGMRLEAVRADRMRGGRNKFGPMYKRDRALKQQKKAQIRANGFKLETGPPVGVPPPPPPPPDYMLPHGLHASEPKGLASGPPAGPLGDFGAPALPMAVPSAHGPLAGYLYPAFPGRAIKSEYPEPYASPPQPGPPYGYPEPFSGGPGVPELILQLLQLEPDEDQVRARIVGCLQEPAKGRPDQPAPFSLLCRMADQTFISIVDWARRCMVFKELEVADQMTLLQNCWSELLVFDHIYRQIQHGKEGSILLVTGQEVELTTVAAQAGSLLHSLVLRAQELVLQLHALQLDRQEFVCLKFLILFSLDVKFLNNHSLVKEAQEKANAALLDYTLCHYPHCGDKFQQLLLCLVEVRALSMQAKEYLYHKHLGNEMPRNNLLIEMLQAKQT
# Procedure: as §1, §2
# T1 sequence (P10275 669-900 limits assumed): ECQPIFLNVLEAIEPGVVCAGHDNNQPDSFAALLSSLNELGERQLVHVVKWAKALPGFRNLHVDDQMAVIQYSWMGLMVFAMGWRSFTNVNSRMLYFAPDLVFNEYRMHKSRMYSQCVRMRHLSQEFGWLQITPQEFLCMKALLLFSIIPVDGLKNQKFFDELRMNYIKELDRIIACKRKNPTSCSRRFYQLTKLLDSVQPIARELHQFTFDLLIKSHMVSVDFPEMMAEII
# T1 sequence (Q12796 whole entry partner, the tested form may be a part): as the sequence (Q12796 whole entry partner, the tested form may be a part) above
substance,measurement,setting,value
"PNRC: proline-rich nuclear receptor co-regulatory protein, 327 aa, SEQ ID NO:8, nuclear receptor coactivator",interaction with AR,AR HBD,only weak interactions were detected
same,interaction with ER,"ER (ERα LBD, aa 274-595)",only weak interactions were detected
same,interaction with ERRα1,ERRα1,interacted with orphan receptors SF1 and ERRα1 in the absence of any added activator or ligand
same,interaction with GR,GR HBD,only weak interactions were detected
same,interaction with PR,PR HBD,interacts strongly
same,interaction with RAR,RAR HBD,only weak interactions were detected
same,interaction with RXR,RXR HBD,interacts strongly
same,interaction with TR,TR HBD,interacts strongly
same,interaction with SF1,SF1,interacted with orphan receptors SF1 and ERRα1 in the absence of any added activator or ligand
